# Assay results taken from PubChem BioAssay AID1918994 (Molecular Pharmacology Branch, DTP, NCI, 2023).
# Several values for one entry are separate records, joined by “and”; a condition that tells them apart may be missing. Identical values can stand only once.
# System: 292921-168-R-J2-PDC complex spheroid growth
# Test: Anticancer human tumor 292921-168-R-J2-PDC patient-derived pancreatic carcinoma cell line growth inhibition [AhR]
# Conditions: for viability, T/C: stronger effect = lower value
# From the text: Multicellular complex tumor spheroid response to aryl hydrocarbon receptor antagonists in combination with a variety of drugs and investigational agents in selected tumor cell lines
# The current study was undertaken to assess response to aryl hydrocarbon receptor antagonists in combination with standard-of-care drugs and investigational agents in solid tumor complex spheroid models. Complex spheroids include a stromal component modeled by human endothelial cells (HUVEC) and fibroblasts modeled by human mesenchymal stem cells (MSCs). The concentration ranges selected for each drug and investigational agent were based upon clinically achievable concentrations if the clinical Cmax of the agent was known.
# Compounds. The drugs and investigational agents: BAY 2416964 (NSC825713), GNF351 (NSC835774), CH-223191 (NSC835775), CPI-455 (NSC825282), aza-TdCyd (NSC777586), decitabine (NSC127716), belinostat (NSC758774), entinostat (NSC756642), pevonedistat (NSC761192), tazemetostat (NSC777109), talazoparib (NSC765396), olaparib (NSC753686), selinexor (NSC780203), nedisertib (M3814, NSC802822), bortezomib (NSC756655), venetoclax (NSC766270), doxorubicin (NSC123127), elimusertib (BAY189344, NSC800525), ceralasertib (AZD6738, NSC777638), TAK-243 (NSC785004), alisertib (NSC759677), etoposide (NSC141540), topotecan (NSC609699), eribulin (NSC707389), gemcitabine (NSC613327), carboplatin (NSC241240), cisplatin (NSC119875), and SN-38 (NSC673596) were obtained from the National Cancer Institute (NCI) Developmental Therapeutics Program Chemical Repository (32). The FDA-approved anticancer drug set is available from the Developmental Therapeutics Program at https://dtp.cancer.gov/organization/dscb/obtaining/available plates.htm. […] The stock solutions were prepared in dimethyl sulfoxide (DMSO, Sigma-Aldrich, St. Louis, MO, cat. D2650), except for the platinum compounds which were prepared in saline (Quality Biological, Gaithersburg, MD, cat. 114-055-101), at 800-fold the tested concentration and stored at -70 degrees C prior to their use. All drugs and investigational agents were tested over a range starting from a high concentration at or near the clinical Cmax and decreasing in half-log increments. If the clinical Cmax for an agent had not been determined, the highest concentration tested was 10 microM (Table 1).
# Cell Culture. All cells were maintained in an incubator at 37 degrees C and 5% CO2 with 95% humidity. The PDC lines were cultured according to standard operating procedures established by the NCI PDMR (https://pdmr.cancer.gov). Briefly, all PDCs were thawed and cultured in Matrigel-coated flasks prepared with a working solution of 1X Ham's F-12 nutrient mix, without supplementation (Invitrogen, Waltham, MA, cat. 11765054), 100 U/mL penicillin-streptomycin (Invitrogen, cat. 15140122), and 2.5% Matrigel (Corning Inc., Corning, NY, cat. 354248) for the first three passages. All PDCs were cultured in complete DMEM/F-12 media containing advanced DMEM/F-12 (Invitrogen, cat. 12634028), 4.9% defined fetal bovine serum, heat inactivated (HyClone Laboratories Inc., Logan, UT, cat. SH30070.03HI), 389 ng/mL hydrocortisone (Sigma-Aldrich, cat. H4001), 9.7 ng/mL human EGF recombinant protein (Invitrogen, cat. PHG0313), 23.4 microg/mL adenine (Sigma-Aldrich, cat. A2786), 97.3 U/mL penicillin-streptomycin (Invitrogen, cat. 15140122), 1.9 mM L-glutamine (Invitrogen, cat. 25030081), and 9.7 microM Y-27632 dihydrochloride (Tocris Bioscience, Bristol, United Kingdom, cat. 1254). The PDCs were cultured in complete DMEM/F12 media without 10 microM Y-27632 dihydrochloride for at least two passages prior to the screen. The established cell lines NCI-H1341 and […] were cultured in DMEM/F-12, HEPES (Invitrogen, cat. 11330032), 5% defined fetal bovine serum (HyClone Laboratories Inc., cat. SH30070.03), ITS premix universal culture supplement [insulin (5 microg/mL), transferrin (5 microg/mL), and selenious acid (5 ng/mL)] […]
# [1] = curve of first compound, second compound 0.1 µM
# [2] = curve of first compound, second compound 0.316 µM
# [3] = curve of first compound, second compound 1 µM
# [4] = curve of first compound, second compound 3.16 µM
# [5] = curve of first compound, second compound 10 µM
# [6] = second compound 0.1 µM, first compound 0.0316 µM
# [7] = second compound 0.1 µM, first compound 0.1 µM
# [8] = second compound 0.1 µM, first compound 0.316 µM
# [9] = second compound 0.1 µM, first compound 1 µM
# [10] = second compound 0.1 µM, first compound 3.16 µM
# [11] = second compound 0.1 µM, first compound 10 µM
# [12] = second compound 0.316 µM, first compound 0.0316 µM
# [13] = second compound 0.316 µM, first compound 0.1 µM
# [14] = second compound 0.316 µM, first compound 0.316 µM
# [15] = second compound 0.316 µM, first compound 1 µM
# [16] = second compound 0.316 µM, first compound 3.16 µM
# [17] = second compound 0.316 µM, first compound 10 µM
# [18] = second compound 1 µM, first compound 0.0316 µM
# [19] = second compound 1 µM, first compound 0.1 µM
# [20] = second compound 1 µM, first compound 0.316 µM
# [21] = second compound 1 µM, first compound 1 µM
# [22] = second compound 1 µM, first compound 3.16 µM
# [23] = second compound 1 µM, first compound 10 µM
# [24] = second compound 3.16 µM, first compound 0.0316 µM
# [25] = second compound 3.16 µM, first compound 0.1 µM
# [26] = second compound 3.16 µM, first compound 0.316 µM
# [27] = second compound 3.16 µM, first compound 1 µM
# [28] = second compound 3.16 µM, first compound 3.16 µM
# [29] = second compound 3.16 µM, first compound 10 µM
# [30] = second compound 10 µM, first compound 0.0316 µM
# [31] = second compound 10 µM, first compound 0.1 µM
# [32] = second compound 10 µM, first compound 0.316 µM
# [33] = second compound 10 µM, first compound 1 µM
# [34] = second compound 10 µM, first compound 3.16 µM
# [35] = second compound 10 µM, first compound 10 µM
# 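Note: spheroids exposed to compounds for seven days after three days of growth.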
IC50 [1] [nM],IC50 [2] [nM],IC50 [3] [nM],IC50 [4] [nM],IC50 [5] [nM],Structure (SMILES),"viability, T/C [6] [%]","viability, T/C [7] [%]","viability, T/C [8] [%]","viability, T/C [9] [%]","viability, T/C [10] [%]","viability, T/C [11] [%]","viability, T/C [12] [%]","viability, T/C [13] [%]","viability, T/C [14] [%]","viability, T/C [15] [%]","viability, T/C [16] [%]","viability, T/C [17] [%]","viability, T/C [18] [%]","viability, T/C [19] [%]","viability, T/C [20] [%]",other results
539,612,277,229,< 31.6,Nc1ccccc1NC(=O)c1ccc(CNC(=O)OCc2cccnc2)cc1 + Cc1ccccc1N=Nc1ccc(NC(=O)c2ccnn2C)c(C)c1,66.5,65.1,57,40.9,27.3,12,66.8,65.8,58.9,42.8,26.1,12.8,63.9,54.5,52.6,"viability, T/C [21]: 35.9%; viability, T/C [22]: 26.5%; viability, T/C [23]: 12.3%; viability, T/C [24]: 54%; viability, T/C [25]: 55%; viability, T/C [26]: 50.7%; viability, T/C [27]: 33.4%; viability, T/C [28]: 23.7%; viability, T/C [29]: 10.3%; viability, T/C [30]: 48.9%; viability, T/C [31]: 42.7%; viability, T/C [32]: 34.7%; viability, T/C [33]: 32.3%; viability, T/C [34]: 17.7%; viability, T/C [35]: 8.67%"
190,148,195,116,< 31.6,Nc1ccccc1NC(=O)c1ccc(CNC(=O)OCc2cccnc2)cc1 + CC(CO)NC(=O)c1cc(-c2ccc(Cl)cc2)nn(-c2cnn(C)c2)c1=O,67.5,58.8,43,31,25.5,9.72,69,51.2,44.3,28.1,23.7,10.4,66.6,60.7,43.4,"viability, T/C [21]: 25.4%; viability, T/C [22]: 23.7%; viability, T/C [23]: 9.21%; viability, T/C [24]: 60.8%; viability, T/C [25]: 51.1%; viability, T/C [26]: 43.3%; viability, T/C [27]: 23.1%; viability, T/C [28]: 22.7%; viability, T/C [29]: 8.28%; viability, T/C [30]: 45.9%; viability, T/C [31]: 40.5%; viability, T/C [32]: 32.9%; viability, T/C [33]: 19.4%; viability, T/C [34]: 18.1%; viability, T/C [35]: 5.12%"

# More lines, now with the values behind:
Structure (SMILES),IC50 [1] [nM],IC50 [2] [nM],IC50 [3] [nM],IC50 [4] [nM],IC50 [5] [nM],"viability, T/C [6] [%]","viability, T/C [7] [%]","viability, T/C [8] [%]","viability, T/C [9] [%]","viability, T/C [10] [%]","viability, T/C [11] [%]","viability, T/C [12] [%]","viability, T/C [13] [%]","viability, T/C [14] [%]","viability, T/C [15] [%]","viability, T/C [16] [%]","viability, T/C [17] [%]","viability, T/C [18] [%]","viability, T/C [19] [%]","viability, T/C [20] [%]",other results
O=C(c1cc(Cc2n[nH]c(=O)c3ccccc23)ccc1F)N1CCN(C(=O)C2CC2)CC1 + Cc1cncc(-c2nc(NCCc3c[nH]c4ccccc34)c3ncn(C(C)C)c3n2)c1,> 10000,> 10000,> 10000,> 10000,< 31.6,88.1,94.8,85.6,89.7,89.8,70.3,91.6,89.3,88.8,84.7,87.9,65.6,84.2,80.6,80.6,"viability, T/C [21]: 88.2%; viability, T/C [22]: 85.5%; viability, T/C [23]: 61.5%; viability, T/C [24]: 61.6%; viability, T/C [25]: 67.3%; viability, T/C [26]: 69.2%; viability, T/C [27]: 66%; viability, T/C [28]: 68.6%; viability, T/C [29]: 54.2%; viability, T/C [30]: 44%; viability, T/C [31]: 47%; viability, T/C [32]: 44.9%; viability, T/C [33]: 44.5%; viability, T/C [34]: 43.4%; viability, T/C [35]: 37.2%"
O=C(C=Cc1cccc(S(=O)(=O)Nc2ccccc2)c1)NO,,,,,,,,,,,,,,,,,,,,,"viability, T/C (compound 0.0316 µM): 68.6% and 72.8% and 73.1%; viability, T/C (compound 0.1 µM): 60.2% and 62% and 60%; viability, T/C (compound 0.316 µM): 45.1% and 51.2% and 40.3%; viability, T/C (compound 1 µM): 40.8% and 41.1% and 34.5%; viability, T/C (compound 3.16 µM): 36.6% and 37.4% and 31.4%; viability, T/C (compound 10 µM): 3.45% and 3.29% and 1.56%; IC50 (curve of compound): 424 nM and 553 nM and 249 nM"
O=C(C=Cc1cccc(S(=O)(=O)Nc2ccccc2)c1)NO + CC(CO)NC(=O)c1cc(-c2ccc(Cl)cc2)nn(-c2cnn(C)c2)c1=O,279,327,261,146,< 31.6,72.2,56.7,48.6,35.1,28.5,1.96,74,63.3,46.1,36.3,30.7,2.62,67.8,57.3,46.5,"viability, T/C [21]: 35.4%; viability, T/C [22]: 28.7%; viability, T/C [23]: 3.31%; viability, T/C [24]: 64%; viability, T/C [25]: 52%; viability, T/C [26]: 41.9%; viability, T/C [27]: 31%; viability, T/C [28]: 22.5%; viability, T/C [29]: 2.61%; viability, T/C [30]: 50.4%; viability, T/C [31]: 43.6%; viability, T/C [32]: 39.1%; viability, T/C [33]: 29.1%; viability, T/C [34]: 20%; viability, T/C [35]: 1.62%"
CC1COCCN1c1cc(-c2ccnn2C)c2ccnc(-c3ccn[nH]3)c2n1 (centres undefined),,,,,,,,,,,,,,,,,,,,,"viability, T/C (compound 0.00316 µM): 99.6% and 103% and 96.5%; viability, T/C (compound 0.01 µM): 90.4% and 97.9% and 92.8%; viability, T/C (compound 0.0316 µM): 65.1% and 66.1% and 56.9%; viability, T/C (compound 0.1 µM): 36.3% and 32.1% and 32.4%; viability, T/C (compound 0.316 µM): 23.2% and 19.6% and 21.7%; viability, T/C (compound 1 µM): 19.2% and 17.7% and 17.8%; IC50 (curve of compound): 58 nM and 54.7 nM and 45.7 nM"
